These results are taken from ChEMBL document CHEMBL1201862, “PubChem BioAssay data set” (2004).

The nature of assay [1]: MITF Orthogonal Assay: SK-MEL-5 CTG Assay Measured in Cell-Based System Using Plate Reader - 2084-02_Inhibitor_Dose_DryPowder_Activity_Set7. Type of assay: functional.
A short description of assay [2]: MITF: Counter assay: A375 proliferation Measured in Cell-Based System Using Plate Reader - 2084-03_Inhibitor_Dose_DryPowder_Activity_Set8. Format: functional. The note with it: A-375.
Assay [3] is described as follows: TRPM1 promoter luciferase reporter signal decrease, dose response, MITF inhibitor project, cell-based, SK-MEL-5, dry powder, set 8 (AID 624430). Type of assay: functional. (In a reporter assay the amount or activity of a reporter protein is the signal.)
Assay [4] concerns HEK293. In words: inhibitors of LMP1-driven NF-kB reporter, dose response, cell-based, HEK293, luciferase, cherry-pick (AID 588343). Format: functional. To be noted: Homo sapiens.
Assay [5] can be described thus: A549 cell cytotoxicity, dose response, cytotoxicity control, plate reader, cherry-pick, antagonist series (AID 743412). Format: functional, cell-based.
Assay [6] is described as follows: LGR2 antagonists, dose response, cell-based, HEK293, CRE-luciferase reporter, cherry pick, set 2 (AID 743343).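 Further: transfected cells were stimulated with diluted bursicon conditioned medium after compound addition.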 Type of assay: functional.
Assay [7] in a line: MC4R antagonists, dose response, counter-screen for LGR2 antagonist project, cell-based, plate reader, cherry pick (AID 743444).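 Further: transfected HEK 293 cells stimulated with alpha-MSH peptide; potency of inhibitors of the alpha-MSH evoked signal.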 Format: functional.
The target of assay [8] is Albumin (Bos taurus, UniProt P02769). In words: Counterscreen for inhibitors of T-cell receptor (TCR)-CD3 interaction: Fluorescence-based biochemical high throughput dose response assay to identify inhibitors of T-cell receptor (TCR)-CD3 interaction using a TAMRA-labeled BSA probe. Type of assay: functional. A general note: A counterscreen serves to expose hits that act by an unwanted route or on another target.

Assay [9] is described as follows: human group III sPLA2 inhibitors, dose response, biochemical, QFRET, IC50 (AID 743457).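 Further: green fluorescence rise as the enzyme cleaves BODIPY PC-A2 in liposomes; potency for inhibition of the enzyme.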
Assay [10] concerns the target T1, Oxysterols receptor LXR-beta (Homo sapiens, UniProt P55055).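 Further: agonist activity at LXR measured by a cell-based luminescence readout across a dose range, run as a counterscreen for daf-12 agonists; HEK293 cells with Gal4-LXR fusion and GAL4-driven luciferase reporter; potency for activation of Gal4-LXR reporter so compounds are agonists.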
T1 sequence (P55055 whole entry): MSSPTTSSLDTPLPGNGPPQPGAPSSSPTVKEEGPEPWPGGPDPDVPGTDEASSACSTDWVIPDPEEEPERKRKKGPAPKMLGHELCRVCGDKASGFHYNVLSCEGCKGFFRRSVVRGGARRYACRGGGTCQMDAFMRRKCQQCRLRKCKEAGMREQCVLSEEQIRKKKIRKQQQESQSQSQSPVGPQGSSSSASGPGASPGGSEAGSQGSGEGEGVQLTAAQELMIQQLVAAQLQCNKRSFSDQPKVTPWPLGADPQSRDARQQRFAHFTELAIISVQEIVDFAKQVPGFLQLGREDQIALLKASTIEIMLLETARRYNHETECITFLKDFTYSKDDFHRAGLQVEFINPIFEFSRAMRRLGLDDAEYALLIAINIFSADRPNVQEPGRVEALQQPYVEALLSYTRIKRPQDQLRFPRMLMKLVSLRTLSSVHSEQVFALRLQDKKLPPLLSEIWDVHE
Type of assay: functional, cell-based.

Assay [11] has as its target Paired box protein Pax-8 (Homo sapiens, UniProt Q06710). In words: inhibitors of PAX8-driven TPO luciferase reporter, dose response, RMG-I cells, cherry-pick (AID 687027).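 Further: luciferase reporter driven by Pax8 target thyroperoxidase promoter measured by SteadyGlo luminescence.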 Type of assay: functional, cell-based.
A short description of assay [12]: NIH:OVCAR-3 ovarian cancer cell cytotoxicity, dose response, PAX8 inhibitor project, plate reader, dry powder samples (AID 743044). Type of assay: functional, cell-based.
Assay [13] can be described thus: cytotoxicity in OVCAR8 ovarian cancer cells, dose response, PAX8 project, cell-based, plate reader, dry powder samples (AID 743197). Format: functional. To be noted: OVCAR-8.
Assay [14] is described as follows: inhibitors of HIV Env-driven cell fusion, dose response, cherry-pick (AID 652057). Format: functional, cell-based.
A short description of assay [15]: CEM21 lymphoblast cell cytotoxicity, dose response, cytotoxicity control for viral fusion inhibitor project, CellTiter-Glo luminescence, cherry-picked (AID 652042).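 Further: potency for signal decrease meaning cytotoxicity.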 Type of assay: functional, cell-based.
A short description of assay [16]: inhibitors of PGC1a acetylation in cells, dose response, cell-based, cherry-picked samples (AID 720514).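 Further: potency may reflect raised or lowered acetylation signal.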 Format: functional.
A short description of assay [17]: P. falciparum Dd2 growth inhibitors, dose response, SYBR Green, cherry-picked samples (AID 1159567). Type of assay: functional, cell-based.
A short description of assay [18]: T. cruzi growth inhibition in host cells, dose response, cell-based, plate reader, dry powder, set 2 (AID 652275). Format: functional.
The nature of assay [19]: ADAM10 inhibitors, peptide cleavage, dose response, biochemical, QFRET (AID 743254).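 Further: ADAM10 enzyme with the DM2 quenched FRET peptide as substrate; EDANS fluorescence gain as the protease cuts the substrate; inhibitor potency against ADAM10 proteolytic activity.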
Assay [20] has as its target Disintegrin and metalloproteinase domain-containing protein 17 (Homo sapiens, UniProt P78536). In words: ADAM17 protease inhibitors, dose response, counter-screen for ADAM10 exosite inhibitor project, biochemical, quenched FRET substrate (AID 743253).
The nature of assay [21]: NIH-3T3 fibroblast cytotoxicity, dose response, cytotoxicity control, cell-based, fluorescence, Alamar Blue, secondary assay (AID 2327).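 Further: NIH-3T3 mouse fibroblasts cultured with fluconazole at 8 µg/mL.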 Format: functional. (Alamar Blue is a resazurin reagent that responds to reducing activity.)
Assay [22] relates to Streptococcus sp. 'group A'. In words: growth inhibition of control SK(-) GAS strain, dose response, counter-screen for streptokinase expression inhibitor project, luminescence, kanamycin, BacTiterGlo, confirmation (AID 1900). Format: functional, organism-based.
A short description of assay [23]: C. albicans growth with fluconazole, confirmation, fluorescence, retest (AID 2467). Format: functional, cell-based.
The target in assay [24] is T2, Serine/threonine-protein phosphatase (Candida dubliniensis (strain CD36 / CBS 7987 / NCPF 3949 / NRRLY-17841) (Yeast), UniProt B9W6M3).
T2 sequence (B9W6M3 whole entry): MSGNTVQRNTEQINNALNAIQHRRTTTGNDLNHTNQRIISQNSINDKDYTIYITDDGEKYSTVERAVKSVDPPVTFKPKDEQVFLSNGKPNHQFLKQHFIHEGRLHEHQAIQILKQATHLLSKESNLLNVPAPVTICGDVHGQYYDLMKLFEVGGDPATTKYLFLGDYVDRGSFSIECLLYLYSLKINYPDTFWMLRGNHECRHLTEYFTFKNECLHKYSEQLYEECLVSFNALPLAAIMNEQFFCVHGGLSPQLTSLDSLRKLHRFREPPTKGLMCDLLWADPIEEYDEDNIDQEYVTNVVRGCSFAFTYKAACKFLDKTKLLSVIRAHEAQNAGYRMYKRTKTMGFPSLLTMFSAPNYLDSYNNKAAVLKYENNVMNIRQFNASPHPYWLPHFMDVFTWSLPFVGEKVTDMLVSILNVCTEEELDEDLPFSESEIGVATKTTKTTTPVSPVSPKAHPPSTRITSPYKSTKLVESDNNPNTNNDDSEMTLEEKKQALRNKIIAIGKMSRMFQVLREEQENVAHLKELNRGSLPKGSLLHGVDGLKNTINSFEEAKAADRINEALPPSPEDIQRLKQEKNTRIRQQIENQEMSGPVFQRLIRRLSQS
In words: calcineurin pathway inhibitors in yeast reporter, dose response, S. cerevisiae, CDRE-lacZ, luminescence, secondary (AID 2388).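 Further: yeast reporter cells carrying a calcineurin-responsive lacZ construct stimulated with calcium chloride; luminescent beta-galactosidase reporter signal in whole cells rather than isolated phosphatase activity; potency for inhibition where a drop in reporter signal means calcineurin blockade.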 Type of assay: functional, cell-based.

In assay [25] the target is T3, Kappa-type opioid receptor (Homo sapiens, UniProt P41145). Format: functional.
Assay [26] deals with Beta-galactosidase (Escherichia coli, UniProt Q8VNN2). Format: functional.
In assay [27] the target is T3, Kappa-type opioid receptor. Type of assay: functional. The source holds these as a separate data set.
For assay [28], the system named is Streptococcus. In words: Group A Streptococcus viability loss, dose response, counter-screen for streptokinase expression inhibitor project, luminescence, BacTiterGlo (AID 1915).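 Further: potency for reduction of bacterial viability or growth.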 Format: functional, organism-based.
For assay [29], the target named is Heat shock protein HSP 90-alpha (Homo sapiens, UniProt P07900). Type of assay: functional, organism-based.
Assay [30] has as its system Vero. In words: cells. To be noted: Chlorocebus sabaeus. Type of assay: functional.
Assay [31] addresses ATP-dependent molecular chaperone HSP82 (Candida albicans (strain WO-1) (Yeast), UniProt C4YTQ8). In words: loss of DOC-induced GRE-beta-galactosidase reporter signal, dose response, Hsp90 inhibitor project, S. cerevisiae, luminescence (AID 2400).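 Further: beta-galactosidase luminescence from glucocorticoid response element reporter as proxy for Hsp90 function; inhibitor potency where signal loss means Hsp90 inhibition.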 Format: functional, cell-based.
Assay [32] deals with Matrix metalloproteinase-14 (Homo sapiens, UniProt P50281). In words: Dose Response confirmation of uHTS hits for a small molecule inhibitors of MT1-MMP activation in a fluorescence assay set 1. Type of assay: functional.
The target of assay [33] is Tyrosyl-DNA phosphodiesterase 2 (Homo sapiens, UniProt O95551). In words: human TDP2 enzyme inhibitors, dose response, biochemical, epi absorbance, IC50 (AID 743297).
A short description of assay [34]: HEK293T cytotoxicity, dose response, cytotoxicity control for miR-122 modulator project, cell-based, inhibitor set, cherry-pick, set 2 (AID 720697). Format: functional.

Activity calls are given as the source filed them. Some results are limits rather than exact numbers.

The term AC50 denotes the concentration giving half of the maximal activity seen. A word on the IC50: it is the concentration needed to halve the response being measured. The term EC50 denotes the concentration giving half of the maximal effect. The term CC50 denotes the concentration giving 50% cytotoxicity.

Chain of Albumin (P02769 whole entry): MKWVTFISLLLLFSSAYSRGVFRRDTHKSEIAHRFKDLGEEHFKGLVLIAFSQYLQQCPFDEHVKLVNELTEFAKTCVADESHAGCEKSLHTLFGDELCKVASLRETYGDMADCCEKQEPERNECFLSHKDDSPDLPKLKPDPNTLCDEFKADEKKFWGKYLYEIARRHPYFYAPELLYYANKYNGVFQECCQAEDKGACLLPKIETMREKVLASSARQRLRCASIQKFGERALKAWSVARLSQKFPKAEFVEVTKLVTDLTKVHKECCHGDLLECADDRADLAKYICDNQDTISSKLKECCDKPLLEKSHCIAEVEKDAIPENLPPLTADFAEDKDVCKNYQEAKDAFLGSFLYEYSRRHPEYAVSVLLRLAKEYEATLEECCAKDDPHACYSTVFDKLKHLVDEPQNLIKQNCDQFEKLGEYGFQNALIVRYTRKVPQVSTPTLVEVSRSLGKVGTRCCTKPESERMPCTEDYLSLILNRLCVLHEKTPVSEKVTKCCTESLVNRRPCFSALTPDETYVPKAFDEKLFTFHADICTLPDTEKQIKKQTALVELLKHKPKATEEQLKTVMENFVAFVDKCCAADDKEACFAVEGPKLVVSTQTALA
T3 sequence (P41145 whole entry): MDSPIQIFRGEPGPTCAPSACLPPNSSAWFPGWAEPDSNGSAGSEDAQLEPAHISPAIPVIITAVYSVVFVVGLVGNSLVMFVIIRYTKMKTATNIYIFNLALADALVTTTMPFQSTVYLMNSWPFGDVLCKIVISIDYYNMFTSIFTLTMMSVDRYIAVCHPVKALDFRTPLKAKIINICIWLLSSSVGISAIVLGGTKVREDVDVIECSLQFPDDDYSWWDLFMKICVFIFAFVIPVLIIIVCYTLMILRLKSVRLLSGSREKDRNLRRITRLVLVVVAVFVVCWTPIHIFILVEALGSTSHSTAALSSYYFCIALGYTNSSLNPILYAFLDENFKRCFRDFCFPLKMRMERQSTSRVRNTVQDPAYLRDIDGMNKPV
Chain of Beta-galactosidase (Q8VNN2 whole entry): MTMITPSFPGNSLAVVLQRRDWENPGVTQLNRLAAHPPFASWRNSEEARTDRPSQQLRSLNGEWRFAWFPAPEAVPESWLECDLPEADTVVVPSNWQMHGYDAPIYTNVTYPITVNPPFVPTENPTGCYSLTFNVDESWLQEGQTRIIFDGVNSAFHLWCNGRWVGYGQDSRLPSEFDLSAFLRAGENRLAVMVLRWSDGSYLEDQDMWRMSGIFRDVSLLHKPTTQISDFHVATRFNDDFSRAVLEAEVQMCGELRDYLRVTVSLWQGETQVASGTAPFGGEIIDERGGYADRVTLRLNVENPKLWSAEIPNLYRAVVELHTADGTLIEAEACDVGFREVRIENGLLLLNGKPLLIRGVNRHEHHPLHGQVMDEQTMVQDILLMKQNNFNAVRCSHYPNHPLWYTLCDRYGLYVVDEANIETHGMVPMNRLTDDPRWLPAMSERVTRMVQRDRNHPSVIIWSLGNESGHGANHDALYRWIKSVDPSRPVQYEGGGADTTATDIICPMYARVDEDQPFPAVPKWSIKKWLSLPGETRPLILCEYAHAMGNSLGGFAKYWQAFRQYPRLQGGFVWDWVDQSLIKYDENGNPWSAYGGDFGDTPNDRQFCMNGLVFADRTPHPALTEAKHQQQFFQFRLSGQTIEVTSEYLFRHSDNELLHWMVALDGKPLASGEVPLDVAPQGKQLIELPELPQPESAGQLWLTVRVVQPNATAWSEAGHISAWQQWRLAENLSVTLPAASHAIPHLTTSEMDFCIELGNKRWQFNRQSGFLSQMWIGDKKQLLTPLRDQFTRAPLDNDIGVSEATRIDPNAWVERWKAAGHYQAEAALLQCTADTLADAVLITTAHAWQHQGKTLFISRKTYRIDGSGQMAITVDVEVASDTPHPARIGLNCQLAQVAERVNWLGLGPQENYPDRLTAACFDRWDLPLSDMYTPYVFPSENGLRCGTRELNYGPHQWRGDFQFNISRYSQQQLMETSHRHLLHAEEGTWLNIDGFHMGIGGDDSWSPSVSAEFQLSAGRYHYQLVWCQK
Chain of Tyrosyl-DNA phosphodiesterase 2 (O95551 whole entry): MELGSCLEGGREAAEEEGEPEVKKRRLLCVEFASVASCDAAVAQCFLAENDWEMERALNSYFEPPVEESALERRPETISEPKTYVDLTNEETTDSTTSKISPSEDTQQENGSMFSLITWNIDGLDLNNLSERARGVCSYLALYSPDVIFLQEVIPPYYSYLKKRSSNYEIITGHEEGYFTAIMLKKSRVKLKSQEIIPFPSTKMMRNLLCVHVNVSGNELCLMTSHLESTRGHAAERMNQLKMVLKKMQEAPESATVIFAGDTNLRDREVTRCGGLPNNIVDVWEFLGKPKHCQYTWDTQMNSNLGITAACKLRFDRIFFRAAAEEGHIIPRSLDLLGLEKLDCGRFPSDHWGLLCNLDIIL
Chain of Paired box protein Pax-8 (Q06710 whole entry): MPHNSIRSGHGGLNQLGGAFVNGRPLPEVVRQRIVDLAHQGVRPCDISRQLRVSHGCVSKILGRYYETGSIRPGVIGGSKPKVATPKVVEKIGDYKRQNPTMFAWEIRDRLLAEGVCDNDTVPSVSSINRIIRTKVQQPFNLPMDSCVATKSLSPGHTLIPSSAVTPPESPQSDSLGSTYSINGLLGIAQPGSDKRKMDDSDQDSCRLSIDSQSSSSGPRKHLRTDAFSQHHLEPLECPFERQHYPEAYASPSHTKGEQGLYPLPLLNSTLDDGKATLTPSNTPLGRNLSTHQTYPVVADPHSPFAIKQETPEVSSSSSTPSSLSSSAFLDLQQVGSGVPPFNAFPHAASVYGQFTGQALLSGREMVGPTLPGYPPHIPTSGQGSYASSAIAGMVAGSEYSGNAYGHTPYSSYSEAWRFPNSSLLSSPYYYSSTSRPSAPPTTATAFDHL
Chain of Disintegrin and metalloproteinase domain-containing protein 17 (P78536 whole entry, the tested form may be a part): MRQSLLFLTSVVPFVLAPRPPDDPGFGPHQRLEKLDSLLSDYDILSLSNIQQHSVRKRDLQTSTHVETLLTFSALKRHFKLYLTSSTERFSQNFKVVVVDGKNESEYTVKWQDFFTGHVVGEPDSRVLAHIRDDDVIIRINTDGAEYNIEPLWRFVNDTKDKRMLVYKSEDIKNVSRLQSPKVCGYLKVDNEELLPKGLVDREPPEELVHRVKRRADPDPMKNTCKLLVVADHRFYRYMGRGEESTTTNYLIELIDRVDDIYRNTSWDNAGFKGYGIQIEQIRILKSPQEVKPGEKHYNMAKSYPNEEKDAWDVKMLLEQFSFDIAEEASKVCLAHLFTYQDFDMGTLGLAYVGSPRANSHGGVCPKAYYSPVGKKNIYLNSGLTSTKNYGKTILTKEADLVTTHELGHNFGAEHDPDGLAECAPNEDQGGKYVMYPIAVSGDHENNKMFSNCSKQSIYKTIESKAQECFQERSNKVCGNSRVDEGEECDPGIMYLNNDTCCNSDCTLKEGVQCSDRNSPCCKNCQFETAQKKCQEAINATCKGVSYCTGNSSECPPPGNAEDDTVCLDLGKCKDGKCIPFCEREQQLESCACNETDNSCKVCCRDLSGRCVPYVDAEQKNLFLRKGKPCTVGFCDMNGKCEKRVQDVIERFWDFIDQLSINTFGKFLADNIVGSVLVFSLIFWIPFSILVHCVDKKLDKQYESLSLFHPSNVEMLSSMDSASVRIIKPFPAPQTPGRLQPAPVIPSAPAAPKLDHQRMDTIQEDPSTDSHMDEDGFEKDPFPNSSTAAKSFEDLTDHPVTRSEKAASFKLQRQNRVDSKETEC
Chain of ATP-dependent molecular chaperone HSP82 (C4YTQ8 whole entry): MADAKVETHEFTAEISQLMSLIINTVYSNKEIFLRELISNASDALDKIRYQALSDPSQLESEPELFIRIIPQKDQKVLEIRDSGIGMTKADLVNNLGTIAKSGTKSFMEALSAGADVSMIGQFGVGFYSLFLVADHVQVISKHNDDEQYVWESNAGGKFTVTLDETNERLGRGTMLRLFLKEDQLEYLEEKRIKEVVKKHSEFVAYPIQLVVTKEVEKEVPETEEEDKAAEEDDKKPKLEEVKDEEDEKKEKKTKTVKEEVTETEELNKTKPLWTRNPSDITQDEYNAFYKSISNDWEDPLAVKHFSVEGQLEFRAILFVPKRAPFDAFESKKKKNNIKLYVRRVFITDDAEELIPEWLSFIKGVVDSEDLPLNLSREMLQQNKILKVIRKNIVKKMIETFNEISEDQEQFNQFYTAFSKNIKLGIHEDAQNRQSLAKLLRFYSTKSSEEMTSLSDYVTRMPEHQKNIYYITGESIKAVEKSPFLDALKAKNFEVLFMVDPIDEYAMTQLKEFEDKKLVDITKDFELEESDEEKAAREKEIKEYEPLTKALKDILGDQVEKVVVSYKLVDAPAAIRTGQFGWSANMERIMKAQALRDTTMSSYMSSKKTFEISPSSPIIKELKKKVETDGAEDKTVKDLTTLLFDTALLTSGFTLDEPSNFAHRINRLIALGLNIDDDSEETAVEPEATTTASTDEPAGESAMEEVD

`CC1=C(Nc2ccc(Cl)cc2)C(=O)c2ccccc2C1=O`: the AC50 is 0.802 µM (active) in assay [1], > 70 µM (inactive) in [2] and 40.7 µM (active) in assay [3].

For the compound `O=C(Nc1ccc(N2CCOCC2)cc1)c1cnccn1`, the AC50 in assay [4] was 2.09 µM (active); in assay [5], > 52 µM (inactive); in [6], 4.37 µM (active); in [7], 3.9 µM (active).

Turning to `Cc1ccccc1NC(=O)NNC(=O)c1ccc2ccccc2c1O`, the IC50 in assay [8] is > 94.2 µM (inactive); in [9] it was > 122 µM (inactive).

With `CCCn1/c(=N/C(=O)c2ccco2)c(C(=O)OCC)cc2c(=O)n3ccccc3nc21`, in assay [10], the EC50 was > 67.5 µM (inactive).

With `CO[C@H]1CN(C)C(=O)c2cc(NC(=O)c3ccc(-c4ccccc4)cc3)ccc2OC[C@@H](C)NC[C@@H]1C`, the AC50 was 22.6 µM (active) in assay [11], 44.6 µM (active) in assay [12] and 58.4 µM (active) in [13].

On to `Cc1ccc(-c2ccc3c(c2)O[C@@H](CN(C)C(=O)C2CCCCC2)[C@H](C)CN([C@H](C)CO)S3(=O)=O)cc1`, for which the half-maximal activity concentration (AC50) in [14] is 20.7 µM (active); in assay [15], 22 µM (active); in assay [16], 15 µM (active); in [17], 3.07 µM (active).

As to `COc1cccc(-c2ccc([C@H]3[C@H](CO)N4CCCCN(CC5CCOCC5)C[C@@H]34)cc2)c1`, the AC50 in [18] is 1.88 µM (active).

For `Cc1ccc(NC(=O)c2ccc(OCC3CCCO3)cc2)cc1Cl` (stereo not drawn), in assay [15], the concentration at half-maximal activity (AC50) was 50 µM (active).

As to `COc1cc(/C=N/NC(=O)COc2ccc(Cl)cc2)ccc1OS(=O)(=O)c1ccc(C)cc1`, the results for the IC50 in [8], in assay [19] and in [20] were > 94.1 µM (inactive), > 69.5 µM (inactive) and > 69.5 µM (inactive), respectively.

Consider `COc1ccc(C)cc1N=Nc1ccc(O)c2ncccc12`, for which the EC50 was 11.1 µM (active) in [21]; 0.357 µM (active) in [22]; 0.598 µM (active) in [23]; > 180 µM (inactive) in assay [24]; 23.6 µM (active) in assay [26]; 2.67 µM (active) in [28]. Also, the concentration for a half-maximal effect (EC50) in [31] was 2.92 µM (active). The figures for the IC50 in assay [25], in assay [27] and in [32] were > 31.5 µM (inactive), greater than 32 µM and 23.8 µM (inactive), respectively. The half-maximal activity concentration (AC50) in assay [29] was 1.57 µM (active). The CC50 in assay [30] is 5.17 µM (active).

In the case of `CCOc1ccc(-c2c(=O)n(O)c3ccccc3[n+]2[O-])cc1`, the EC50 in assay [10] was > 67.5 µM (inactive).

Regarding `O=C(NC(=S)Nc1ccccc1N1CCCC1)c1ccco1`, the IC50 in [33] was > 128 µM (inactive).

Take `OC[C@H]1[C@H](c2ccc(-c3ccccc3)cc2)[C@@H]2CN(Cc3cncnc3)CCCCN12`: the half-maximal activity concentration (AC50) in [18] was 0.185 µM (active).

With `CCNC(=O)C[C@@H]1CC[C@H]2[C@H](COc3ccc(NC(=O)c4cccc(C(F)(F)F)c4)cc3C(=O)N2C)O1`, the concentration at half-maximal activity (AC50) in assay [34] was 3.05 µM (active).
